Reference: PMC10177692, “Novel topoisomerase II/EGFR dual inhibitors: design, synthesis and docking studies of naphtho[2′,3′:4,5]thiazolo[3,2-a]pyrimidine hybrids as potential anticancer agents with apoptosis inducing activity” (Journal of Enzyme Inhibition and Medicinal Chemistry, 2023)

Key:
caspase-9 = assay: Caspase-9 ELISA in MCF-7 cells; format: cell-based, human; conditions: for Caspase 9 Conc.(pg/ml): MCF-7, at IC50, control 4.51 ± 0.29
Description: The effect of 6a, 6c and 6i hybrids on caspase-7 and −9 levels in MCF-7 cell line was measured using Human Caspase-7 ELISA Kit (BioVision Inc., Milpitas, CA 95035 USA) and Human Caspase-9 ELISA Kit (EIA-4860, DRG, USA), respectively, and according to the manufacturer’s instructions. The results were expressed as Mean ± SE of three independent experiments.

p53 = p53 level ELISA in MCF-7 cells; format: cell-based, human; conditions: for p53 FLD: MCF-7, at IC50, fold of control cells; for p53 Conc.(pg/ml): control 257 ± 19.1
Description: p53 level was determined in MCF-7 cell line using Human p53 ELISA Kit (Sigma Aldrich, St. Louis, MO, USA). The cells were lysed using cell extraction buffer. Cell lysate was diluted with standard diluent buffer, then added to p53 monoclonal antibody pre-coated 96-wells plate. The plate incubated for 2 h at room temperature. Anti-p53 detection antibody was added to the plate and re-incubated at room temperature for 1 h. The plate washed four times using wash buffer followed by addition of anti-rabbit IgG-Horseradish Peroxidase (HRP) working solution. The plate incubated at room temperature for 30 min. Chromogen TMB (tetramethylbenzidine) was added to induce colour reaction. The absorbance of the plate was read at 450 nm using microplate reader (Bio-Rad Laboratories, Hercules, CA, USA). Three independent experiments were performed for each compound and Mean ± SE were calculated.

topoisomerase II = biological target: T1, topoisomerase II (Homo sapiens, UniProt P11388); assay: DNA topo II inhibition assay (kDNA, agarose gel); format: biochemical; conditions: 10 µM, with topo II
T1 construct: purchased Topogen, USA
T1 sequence (P11388 whole entry): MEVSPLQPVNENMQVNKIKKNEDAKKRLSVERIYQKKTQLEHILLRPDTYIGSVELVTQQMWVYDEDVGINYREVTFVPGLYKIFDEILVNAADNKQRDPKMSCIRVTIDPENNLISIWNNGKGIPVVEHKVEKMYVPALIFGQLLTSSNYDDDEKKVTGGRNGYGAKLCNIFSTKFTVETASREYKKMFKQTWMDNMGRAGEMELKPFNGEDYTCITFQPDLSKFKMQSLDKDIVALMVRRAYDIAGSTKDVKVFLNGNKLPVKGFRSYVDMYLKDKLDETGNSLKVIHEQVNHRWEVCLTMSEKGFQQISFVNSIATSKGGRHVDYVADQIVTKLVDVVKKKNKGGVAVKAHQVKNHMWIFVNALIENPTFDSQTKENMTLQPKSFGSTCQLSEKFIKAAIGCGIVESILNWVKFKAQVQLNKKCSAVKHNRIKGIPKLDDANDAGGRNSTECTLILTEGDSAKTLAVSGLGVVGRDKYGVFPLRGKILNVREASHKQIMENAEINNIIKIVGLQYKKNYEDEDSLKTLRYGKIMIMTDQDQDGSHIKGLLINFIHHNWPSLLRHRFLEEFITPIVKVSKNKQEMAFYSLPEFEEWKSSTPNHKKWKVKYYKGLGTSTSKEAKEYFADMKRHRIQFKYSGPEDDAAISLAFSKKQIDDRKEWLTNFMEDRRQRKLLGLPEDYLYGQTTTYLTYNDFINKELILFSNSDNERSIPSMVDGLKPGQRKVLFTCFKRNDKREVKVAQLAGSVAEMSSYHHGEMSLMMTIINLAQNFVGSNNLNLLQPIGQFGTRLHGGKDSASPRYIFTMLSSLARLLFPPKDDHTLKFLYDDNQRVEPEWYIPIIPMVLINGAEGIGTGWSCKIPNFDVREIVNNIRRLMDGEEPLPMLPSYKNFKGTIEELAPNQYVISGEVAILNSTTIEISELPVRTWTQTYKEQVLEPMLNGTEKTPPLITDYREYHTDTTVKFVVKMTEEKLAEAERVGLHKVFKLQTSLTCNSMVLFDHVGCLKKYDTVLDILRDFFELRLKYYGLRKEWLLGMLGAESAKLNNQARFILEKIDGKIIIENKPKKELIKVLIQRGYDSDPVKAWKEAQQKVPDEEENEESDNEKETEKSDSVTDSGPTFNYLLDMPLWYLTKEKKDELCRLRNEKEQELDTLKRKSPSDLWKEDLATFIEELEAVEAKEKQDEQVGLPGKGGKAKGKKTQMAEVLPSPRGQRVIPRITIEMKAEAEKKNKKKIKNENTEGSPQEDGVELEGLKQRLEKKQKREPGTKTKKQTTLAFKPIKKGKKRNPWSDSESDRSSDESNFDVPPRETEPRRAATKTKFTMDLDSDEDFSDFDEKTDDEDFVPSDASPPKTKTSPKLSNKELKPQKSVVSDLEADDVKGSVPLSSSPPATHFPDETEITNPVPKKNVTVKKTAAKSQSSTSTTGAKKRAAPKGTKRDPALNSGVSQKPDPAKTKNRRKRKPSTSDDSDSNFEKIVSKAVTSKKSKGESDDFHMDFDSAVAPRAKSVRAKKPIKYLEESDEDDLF
Description: Using the procedure outlined in topoisomerase II Drug Screening Kit (Topogen, USA), the effect of 6a, 6c and 6i on topoisomerase II inhibition and the effectiveness of catenated/decatenated kDNA formation were examined. The reaction mixture includes 10 mM MgCl2, 50 mM Tris-HCl, 0.5 mM dithiothreitol, […]/ml bovine serum albumin, 200–300 ng of kDNA and topoisomerase II. […] After the reaction samples were incubated for 30 min at 37 °C, the reaction was stopped by adding […] of a stop buffer containing 10% (w/v) SDS and […] of 0.5 mg/ml proteinase followed by incubating the mixture for 10 min at 37 °C. The reaction mixture was separated by 1% agarose gel and examined after being stained with ethidium bromide.

Structure (SMILES) | Caspase 9 Conc.(pg/ml) (caspase-9) [pg/mL] | increase in p53 level compared to Dox treated cells (p53; MCF-7, at IC50) [fold] | p53 FLD (p53) [fold] | p53 Conc.(pg/ml) (p53; MCF-7, at IC50) [pg/mL] | linear DNA formation from catenated kDNA (topoisomerase II) | Caspase 9 FLD (caspase-9; MCF-7, at IC50, fold of control) [fold]
N#Cc1c(-c2ccc([N+](=O)[O-])cc2)nc2sc3c(n2c1=O)C(=O)c1ccccc1C3=O [Compound 6i, 2–(4-Nitrophenyl)-4,6,11-trioxo-6,11-dihydro-4H-naphtho[’',’':4,5]thiazolo-[3,2-a]pyrimidine-3-carbonitrile] | 32.29 ± 0.33 | 1.2 | 5 | 1285 ± 29.9 | the production of linear DNA was not noticed | 
COc1ccc(-c2nc3sc4c(n3c(=O)c2C#N)C(=O)c2ccccc2C4=O)cc1 [Compound 6a, 2–(4-Methoxyphenyl)-4,6,11-trioxo-6,11-dihydro-4H-naphtho[2′,3′:4,5]-thiazolo[3,2-a]pyrimidine-3-carbonitrile] | 21.17 ± 0.38 |  | 3.6 | 922 ± 37.5 | the production of linear DNA was not noticed | 4.69
